From patent US20240156856A1, “NOVEL APPLICATIONS OF HYALURONIC ACID FOR TREATMENT OF PAIN AND PRURITIS” (THE REGENTS OF THE UNIVERSITY OF CALIFORNIA, priority 2022, published 2024)

Experiments:
[1] = system: rats with bortezomib CIPN; assay: Bortezomib CIPN mechanical hyperalgesia, Randall-Selitto paw-withdrawal test; assay type: in vivo, Sprague-Dawley rats; conditions: male rats; bortezomib 0.2 mg/kg i.v., 4 doses, day 7
Description: (§1) Experimental animals. Experiments were performed on 220-400 g male and female Sprague-Dawley rats, purchased from Charles River Laboratories (Hollister, CA, USA), housed three per cage, under a 12-hour light/dark cycle, in a temperature- and humidity-controlled animal care facility at the University of California, San Francisco. Food and water were available ad libitum. Experimental protocols were approved by the University of California, San Francisco, Institutional Animal Care and Use Committee, and adhered to the National Institutes of Health Guidelines for the care and use of laboratory animals.
(§2) Measurement of nociceptive threshold. Mechanical nociceptive threshold was quantified with an Ugo Basile Analgesymeter (Stoelting, Wood Dale, IL, USA), used to perform the Randall-Selitto paw-withdrawal test [61; 68; 69]. This device uses a dome-shaped plinth to apply a mechanical force that increases linearly with time, to the dorsum of a rat's hindpaw. To perform the Randall-Selitto paw-withdrawal test, rats were placed in cylindrical acrylic restrainers with lateral ports that allow access to the hind paw, as described previously. Rats were acclimatized to the testing procedure by placing them in restrainers for 1 h per day for 3 consecutive daily training sessions, and for 30-40 min prior to experiments.
Mechanical nociceptive threshold is defined as the force, in grams, applied by the plinth to the dorsum of the hindpaw, at which a rat withdraws its paw from the stimulus. Baseline paw-withdrawal threshold is defined as the mean of three readings taken before administration of test agents. To minimize experimenter bias, individuals conducting experiments were blinded to experimental treatments. Each experiment was performed on a different group of rats. Data are presented as mechanical nociceptive threshold, in grams (g) or percentage change from preintervention baseline. […]

[2] = system: rats with oxaliplatin CIPN; assay: Oxaliplatin CIPN mechanical hyperalgesia, Randall-Selitto paw-withdrawal test; assay type: in vivo, Sprague-Dawley rats; conditions: for CIPN hyperalgesia, effect of hyaluronan molecular weight range: male rats with oxaliplatin CIPN, topical, combined with DMSO
Description: as §1, §2
(§3) Mechanical nociceptive threshold is defined as the force, in grams, applied by the plinth to the dorsum of the hindpaw, at which a rat withdraws its paw from the stimulus. Baseline paw-withdrawal threshold is defined as the mean of three readings taken before administration of test agents. To minimize experimenter bias, individuals conducting experiments were blinded to experimental treatments. Each experiment was performed on a different group of rats. Data are presented as mechanical nociceptive threshold, in grams (g) or percentage change from preintervention baseline.
(§4) Hyaluronans were initially dissolved in distilled water (dH2O) at a concentration of 10 μg/μL, stock solution, and further diluted by adding DMSO with three final concentrations of hyaluronan (1, 2 and 4 μg/μL), protamine or terpene; unless otherwise stated, the final concentration of DMSO was 75%. The DMSO vehicle was 75% DMSO in 0.9% saline. In one experiment, 500-1200 kDa hyaluronan was administered topically in 0.9% saline vehicle. PGE2 was dissolved in 0.9% saline at the same final concentration that we previously injected intradermally (100 ng/5 μL). In the experiments in which hyaluronan was dissolved in protamine or terpene vehicle, protamine was first dissolved in distilled water (dH2O) to a concentration of 5 μg/μ1, stock solution of hyaluronan was combined with protamine at the final concentration of 2 μg/μ1, in a volume of 3 μl, for topical administration; terpene was first dissolved in dH2O at the concentration of 2 μg/μ1, then hyaluronan was dissolved in stock solution of terpene to its final concentration of 2 μg/μ1, in a volume of 3 μl, for topical administration).
Oxaliplatin CIPN: Oxaliplatin was freshly dissolved in 0.9% saline at a concentration of 2 mg/mL just prior to its tail vein intravenous (i.v.) administration (1 mL/kg), to rats briefly anesthetized with isoflurane (2.5% in O2).
Hyaluronans (30 μL) were administered topically on the dorsum of the hind paw, dispensed from a P200 pipette (Gilson, Middleton, WI, USA) with a plastic pipette tip and then spread manually. […]
(§5) Before use, ODNs were reconstituted in nuclease-free 0.9% saline and then administered by the intrathecal (i.t.) route. As described previously, rats were anesthetized with isoflurane (2.5% in O2) and 120 μg of ODN, in a volume of 20 μL, injected i.t., using a syringe ([…]) attached to a 29-gauge hypodermic needle that was inserted into the subarachnoid space, between the L4 and L5 vertebrae. The i.t. site of the injectate was confirmed by a sudden flick of the rat's tail, a reflex evoked by subarachnoid space access and bolus i.t. injection. […]

[3] = system: PGE2 hyperalgesia in male and female rats; assay: PGE2-induced mechanical hyperalgesia, Randall-Selitto paw-withdrawal test; assay type: in vivo, Sprague-Dawley rats; conditions: 100 ng intradermally, dorsum of hind paw, male and female rats
Description: as §1, §2, §3
Hyaluronans were initially dissolved in distilled water (dH2O) at a concentration of 10 μg/μL, stock solution, and further diluted by adding DMSO with three final concentrations of hyaluronan (1, 2 and 4 μg/μL), protamine or terpene; unless otherwise stated, the final concentration of DMSO was 75%. The DMSO vehicle was 75% DMSO in 0.9% saline. In one experiment, 500-1200 kDa hyaluronan was administered topically in 0.9% saline vehicle. PGE2 was dissolved in 0.9% saline at the same final concentration that we previously injected intradermally (100 ng/5 μL). […]

[4] = system: rats with paclitaxel CIPN; assay: Paclitaxel CIPN mechanical hyperalgesia, Randall-Selitto paw-withdrawal test; assay type: in vivo, Sprague-Dawley rats; conditions: male rats; paclitaxel 1 mg/kg i.p., 4 doses, day 7
Description: as §1, §2, §3, §4
Paclitaxel CIPN: Paclitaxel was dissolved in Cremophor EL and ethanol (1:1) [1; 6; 20; 22] and diluted in 0.9% saline to a concentration of 1 mg/mL, just prior to its intraperitoneal (i.p.) administration (1 mg/kg, i.p.) [19; 42] to rats briefly anesthetized with isoflurane (2.5% in O2), every other day for a total of 4 doses.
Hyaluronans (30 μL) were administered topically on the dorsum of the hind paw, dispensed from a P200 pipette (Gilson, Middleton, WI, USA) with a plastic pipette tip and then spread manually.
Antisense oligodeoxynucleotides (ODNs).
as §5, with “vertebrae.” for “vertebrae. The i.t. site of the injectate was confirmed by a sudden flick of the rat's tail, a reflex evoked by subarachnoid space access and bolus i.t. injection.”

[5] = system: 5-HT-induced scratching behavior in rats; assay: 5-HT-induced scratching (itch) behavior; assay type: in vivo; conditions: topical 100 μg in 50 μl 75% DMSO in water, 30 and 5 mins before 5-HT 200 μg i.d.
Description: Topical hyaluronan attenuates itch behavior in rats. Intradermal administration of serotonin (5-HT) elicited acute scratching behavior, using the method of Nojima and Carstens {Nojima and Carstens, 2003, #99335; PMID: 12814838}. Rats were acclimated to a testing chamber for 30 min, and then briefly anesthetized with 2% isoflurane, during which the fur over the nape of the neck was shaved, and 5-HT (200 μg in 10 μl 0.9% saline vehicle) injected with a 30 gauge needle. In the topical hyaluronan group, hyaluronan (100 μg in 50 μl 75% DMSO in water vehicle) was applied to the skin 30 mins and again 5 mins before administration of 5-HT. Rats were placed back into testing chambers and their behavior video recorded for 40 min. Number of hind paw scratches directed at the injection site were counted by watching video playback at half normal speed, and total number of scratches in 2-min intervals recorded. Rats were treated with 5-HT alone and topical hyaluronan with 5-HT, with 4 days between experimental sessions, allowing for use of paired t-tests to compare data. Data are presented as cumulative number of scratches (FIG. 9A), and as total scratches over the 40-min observation period (FIG. 9B). […] See also, FIG. 10, which includes additional data showing that topical hyaluronan attenuates 5-HT-induced scratching behavior. […] Data are presented as cumulative number of scratches.

rats = conditions: previously shown; cited from earlier work

Question: For `CC(C)C[C@H](NC(=O)[C@H](Cc1ccccc1)NC(=O)c1cnccn1)B(O)O` [Bortezomib, bortezomib, reference compound], which “mechanical nociceptive threshold after chemotherapy” value (“mechanical nociceptive threshold” below) [1] is on record?
Answer: The value was “decreased mechanical nociceptive threshold”.

Question: Which “mechanical nociceptive threshold” value ([2]; male rats, oxaliplatin 2 mg/kg i.v., day 7) does the source give for `O=C1[O][Pt]2([NH][C@@H]3CCCC[C@H]3[NH]2)[O]C1=O` [Oxaliplatin, oxaliplatin, reference compound] here?
Answer: The value was “decreased mechanical nociceptive threshold”.

Question: Which “mechanical hyperalgesia after intradermal PGE2” value [3] does the source give for `CCCCC[C@H](O)/C=C/[C@H]1[C@H](O)CC(=O)[C@@H]1C/C=C\CCCC(=O)O` [PGE2, prostaglandin E2, reference compound] here?
Answer: Its value is “produced robust mechanical hyperalgesia”.

Question: With `CC(=O)O[C@H]1C(=O)[C@@]2(C)[C@H]([C@H](OC(=O)c3ccccc3)[C@]3(O)C[C@H](OC(=O)[C@H](O)[C@@H](NC(=O)c4ccccc4)c4ccccc4)C(C)=C1C3(C)C)[C@]1(OC(C)=O)CO[C@@H]1C[C@@H]2O` [Paclitaxel, paclitaxel, reference compound] as the compound, how does the “mechanical nociceptive threshold” value [4] read?
Answer: The value was “decreased mechanical nociceptive threshold”.

Question: With hyaluronan as the compound, how does the “number of 5-HT scratches over 40 min” value [5] read?
Answer: The value was “significantly attenuated the number of 5-HT scratches”.

Question: For hyaluronan [70-120 kDa hyaluronan], which “CIPN hyperalgesia, effect of hyaluronan molecular weight range” value (from here on “CIPN hyperalgesia, effect”) [2] is on record?
Answer: Its value is “did not attenuate CIPN hyperalgesia”.

Question: With hyaluronan [150-300 kDa hyaluronan] as the compound, how does the “CIPN hyperalgesia, effect” value [2] read?
Answer: Its value is “produced robust anti-hyperalgesia, of similar magnitude and duration”.

Question: Which “CIPN hyperalgesia, effect” value [2] does the source give for hyaluronan [300-500 kDa hyaluronan] here?
Answer: The value was “produced robust anti-hyperalgesia, of similar magnitude and duration”.

Question: For hyaluronan [1500-1750 kDa hyaluronan], which “CIPN hyperalgesia, effect” value [2] is on record?
Answer: Its value is “produced robust anti-hyperalgesia, of similar magnitude and duration”.

Question: Which “nociceptive effect of intradermal injection” value (rats) does the source give for “hyaluronan [low molecular weight hyaluronan, reference compound]” here?
Answer: Its value is “induced hyperalgesia”.
